Measurements from US12234248B2, “Co-crystal compounds comprising lithium ions and isonicotinamide” (UNIVERSITY OF LIMERICK, priority 2017, dated 2025).
“And” between values parts separate entries of the source, which are not always exact repeats. Identical values can stand only once.

Tests used:
[1] = Bioavailability in vivo in rats: lithium in plasma and brain by ICP-OES after oral administration; conditions: for BRAIN CONC., Time(h) 2.00 / PLASMA CONC, Time(h) 2.00: 2 h; for BRAIN CONC., Time(h) 2.00 / BRAIN CONC., Time(h) 24.00 / BRAIN CONC., Time(h) 48.00 / BRAIN CONC., Time(h) 72.00: lithium in brain; for BRAIN CONC., Time(h) 2.00 / PLASMA CONC, Time(h) 2.00 / BRAIN CONC., Time(h) 24.00 / PLASMA CONC, Time(h) 24.00 / BRAIN CONC., Time(h) 48.00 / PLASMA CONC, Time(h) 48.00 / BRAIN CONC., Time(h) 72.00 / PLASMA CONC, Time(h) 72.00: individual rats (three per time); for PLASMA CONC, Time(h) 2.00 / PLASMA CONC, Time(h) 24.00 / PLASMA CONC, Time(h) 48.00 / PLASMA CONC, Time(h) 72.00: lithium in plasma; for BRAIN CONC., Time(h) 24.00 / PLASMA CONC, Time(h) 24.00: 24 h; for BRAIN CONC., Time(h) 48.00 / PLASMA CONC, Time(h) 48.00: 48 h; for BRAIN CONC., Time(h) 72.00 / PLASMA CONC, Time(h) 72.00: 72 h
Protocol: Male Sprague-Dawley rats, weighing 240-290 g, were treated through gastric intubation with formulations of lithium and compared with lithium carbonate as a reference. For each formulation a group of 12 rats was treated. 4 mEq/kg of lithium were orally administered, after suspension in 2 mL of corn seeds oil (“Olio Cuore”).
Four intervals' post-administration time (2, 24, 48 and 72 hours) were considered and three rats for each of them, employing the protocol used by Zaworotko and coworkers (Smith et al., Mol. Pharmaceutics 2013, 10, 4728-4738). At each time interval blood samples were collected through intra-cardiac […], these were treated with 50 μL of sodium heparin and centrifuged for 10 min at 1600 rpm. Plasma samples of approximately […] each were thus obtained. The brain was explanted in toto with perfusion with phosphate buffered saline (PBS) in order to preserve it in a viable state. The plasma and brain samples were immediately frozen at a temperature of −80° C., after measuring the weight of the brains.
In order to determine the concentration of the lithium by means of the ICP-OES (Inductively Coupled Plasma Optical Emission Spectometry) analysis, plasma and brain samples were purified and mineralized, respectively to obtain solutions suitable for analysis.
A 0.5 mL aliquot was taken from each sample, to which were added equal amounts of MilliQ water and concentrated nitric acid, in order to bring the lithium ion in solution in the form of LiNO3 and to obtain the precipitation of the proteins. At this point, each sample was sonicated for 10 min in an ultrasonic bath and diluted to a volume of 5.0 mL.
All samples were subjected to centrifugation for a period of 40 min, at a rotational speed of 6000 rpm, to obtain complete plasma proteins/solution separation. At the end supernatant liquid containing lithium was diluted to a final volume of 15 mL by adding MilliQ water. The obtained solutions were stored at a temperature of 4° C. until analysis.
The purpose of this phase was to obtain liquid samples, suitable to ICP-OES analysis, containing lithium in solution, starting from the solid organic tissue of the brain. The mineralization process allows the complete degradation of organic substances until the total transformation into simple inorganic substances.
The first operation performed was that the drying of the fabric, obtained through the use of a digester open PerkinElmer SPB 100-12: each sample of brain has been inserted in special containers Digitube™ 100 mL and maintained at a temperature of 80° C. for 120 min.
The second step involved the mineralization true and proper brain: each sample were added to 10 mL of concentrated nitric acid and 1.0 mL of hydrogen peroxide, then the system was brought to a temperature of 120° C. for 120 min. until the complete mineralization. With this procedure you get the desired biological degradation of organic compounds and the consequent passage of lithium in solution. The solutions thus obtained were collected, brought to a final volume of 20 mL with MilliQ water and preserved at a temperature of 4° C. until time of analysis.
In order to obtain the determination of lithium ion concentrations in the samples previously prepared, optical emission spectrometry inductively coupled plasma ICP-OES was used (PerkinElmer Optima 8000 spectrometer).
The analysis was conducted at the fixed wavelength of lithium (λ=670.784 nm) and the intensity of the radiation emitted by each sample was measured and compared standard solutions.
Plasma and brain concentration data were processed using a non-compartmental approach using WinNonlin® software (Pharsight Corporation, USA) and Microsoft Excel XP (Microsoft Corporation, […]).

[2] = Stability of crystalline material under warm humid conditions (40° C., 75% relative humidity), PXRD before and after; type: physicochemical; conditions: stored at 40° C., 75% relative humidity; stable = retained crystal form for at least two weeks by PXRD
Protocol: The stability of these compounds under warm humid conditions was assessed as follows:
The crystalline material was stored at 40° C. in an atmosphere of 75% relative humidity.
Compounds were classed as stable if they retained their crystal form for at least two weeks as verified by examination of PXRD patterns collected before and after exposure to humidity.
It can be seen that the pattern obtained after 2 months at 75% relative humidity and 40° C. (upper trace) in this case is different.

[3] = rat brain, 4 mEq/kg lithium oral, non-compartmental
[4] = rat brain, 4 mEq/kg lithium oral, terminal phase
[5] = rat brain, 4 mEq/kg lithium oral, time 0 to last quantifiable point
[6] = rat brain, relative to lithium carbonate
[7] = rat plasma, 4 mEq/kg lithium oral, non-compartmental
[8] = rat plasma, 4 mEq/kg lithium oral, terminal phase
[9] = rat plasma, relative to lithium carbonate

Structure (SMILES) | Cmax (brain) [1, 3] [µg/g] | Tmax (brain) [1, 3] [h] | t½_Lambda_z (brain) [1, 4] [h] | AUClast (brain) [1, 5] [mg·h/g] | Relative Brain BA (UL crystal forms, oral vs Li2CO3, oral) [1, 6] [%] | Cmax (plasma) [1, 7] [µg/mL] | Tmax (plasma) [1, 7] [h] | t½_Lambda_z (plasma) [1, 8] [h] | Relative Plasma BA (UL crystal forms, oral vs Li2CO3 oral) [1, 9] [%] | BRAIN CONC., Time(h) 2.00 ([1]; rat, 4 mEq/kg lithium oral) | PLASMA CONC, Time(h) 2.00 ([1]; rat, 4 mEq/kg lithium oral) | BRAIN CONC., Time(h) 24.00 ([1]; rat, 4 mEq/kg lithium oral) | PLASMA CONC, Time(h) 24.00 ([1]; rat, 4 mEq/kg lithium oral) | BRAIN CONC., Time(h) 48.00 ([1]; rat, 4 mEq/kg lithium oral) | PLASMA CONC, Time(h) 48.00 ([1]; rat, 4 mEq/kg lithium oral) | BRAIN CONC., Time(h) 72.00 ([1]; rat, 4 mEq/kg lithium oral) | PLASMA CONC, Time(h) 72.00 ([1]; rat, 4 mEq/kg lithium oral) | Stable? [2] | also measured
COc1ccc(C(=O)[O-])cc1.O=C(O)[C@@H]1CCCN1.[Li+] [Compound 5, [Li(4-methoxybenzoate)(L-proline)]n] | 4.9833 | 48 | 13.4751 | 229.3867 | 98.70 | 6.0800 | 24 | 16.5057 | 90.41 | 0.23 µg/g and 0.48 µg/g and 0.46 µg/g | 2.82 µg/mL and 4.02 µg/mL and 2.65 µg/mL | 4.44 µg/g and 4.46 µg/g and 2.54 µg/g | 7.15 µg/mL and 6.80 µg/mL and 4.29 µg/mL | 4.42 µg/g and 4.76 µg/g and 5.77 µg/g | 1.45 µg/mL and 1.91 µg/mL and 3.65 µg/mL | 1.08 µg/g and 0.43 µg/g and 2.84 µg/g | 0.63 µg/mL and 0.48 µg/mL and 1.32 µg/mL | Yes | concentration of lithium in the brain compared with lithium carbonate ([1]; rat brain, after 48 hours, FIG. 12): higher
COc1cccc(C(=O)[O-])c1.O=C(O)[C@@H]1CCCN1.[Li+] [Compound 6, [Li(3-methoxybenzoate)(L-proline)]n] | 4.3733 | 24 | 15.3888 | 172.7467 | 74.33 | 6.3833 | 24 | 10.4363 | 74.07 | 0.64 µg/g and 0.44 µg/g and 0.73 µg/g | 3.03 µg/mL and 1.43 µg/mL and 3.38 µg/mL | 4.54 µg/g and 4.21 µg/g and 4.37 µg/g | 5.95 µg/mL and 4.76 µg/mL and 8.44 µg/mL | 2.84 µg/g and 2.06 µg/g and 2.46 µg/g | 0.67 µg/mL and 0.74 µg/mL and 0.87 µg/mL | 0.59 µg/g and 0.49 µg/g and 0.43 µg/g | 0.23 µg/mL and 0.31 µg/mL and 0.25 µg/mL | Yes | –
NC(=O)c1ccncc1.NC(=O)c1ccncc1.O=C([O-])CCC(=O)[O-].[Li+].[Li+] [Compound 7, [Li2(succinate) (isonicotinamide)2]n] | – | – | – | – | – | – | – | – | – | – | – | – | – | – | – | – | – | Yes | AUC (Cerebral)/AUC (Plasma) ([1]; rat, in vivo): 1.077; AUC(0-t) ([1]; rat, in vivo, po): 197 µg·h/mL; AUClast (brain) ([1]; rat, in vivo, po): 211.7400 mg·h/g; Cmax (brain) ([1]; rat, in vivo, po): 5.1533 µg/g; Cmax (plasma) ([1]; rat, in vivo, po): 4.1400 µg/mL; Relative Brain BA (UL crystal forms, oral vs Li2CO3, oral) ([1]; rat, in vivo, po): 91.11%; Relative Plasma BA (UL crystal forms, oral vs Li2CO3 oral) ([1]; rat, in vivo, po): 72.96%; Tmax (brain) ([1]; rat, in vivo, po): 48 h; Tmax (plasma) ([1]; rat, in vivo, po): 24 h; t½_Lambda_z (brain) ([1]; rat, in vivo, po): 7.7957 h; t½_Lambda_z (plasma) ([1]; rat, in vivo, po): 15.0424 h
